Publication PMC5915280, “Improvement of kynurenine aminotransferase-II inhibitors guided by mimicking sulfate esters” (PLoS ONE, 2018)

Target: T1, KAT-II (kynurenine aminotransferase-II) (Homo sapiens, UniProt Q8N5Z0)
T1 construct: gene AADAT; recombinant KAT-II with a hexa-histidine tag, expressed in E. coli Rosetta 2
Experiment: HPLC assay of kynurenic acid formation with purified recombinant enzyme
Assay type: biochemical

T1 sequence (Q8N5Z0 30-425): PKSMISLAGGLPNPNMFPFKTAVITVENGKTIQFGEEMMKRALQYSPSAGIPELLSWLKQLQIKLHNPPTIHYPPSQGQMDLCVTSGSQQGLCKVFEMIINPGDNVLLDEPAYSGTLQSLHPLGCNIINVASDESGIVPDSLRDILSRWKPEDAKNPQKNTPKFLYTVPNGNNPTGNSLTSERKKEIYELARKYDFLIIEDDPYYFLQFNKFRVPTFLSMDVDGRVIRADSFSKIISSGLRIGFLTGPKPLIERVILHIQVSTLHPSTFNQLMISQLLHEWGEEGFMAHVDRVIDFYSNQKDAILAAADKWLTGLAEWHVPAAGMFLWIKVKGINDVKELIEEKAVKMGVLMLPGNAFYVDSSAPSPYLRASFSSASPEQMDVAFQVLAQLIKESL

SMILES	IC50 [µM]
NS(=O)(=O)c1ccc(CCN2C(=O)c3cc(Cl)c(Cl)cc3C2=O)cc1 [JN-02, 4-(5,6-dichloro-1,3-dioxo-1,3-dihydro-2H-isoindol-2-yl)ethyl benzenesulfonamide]	113
NS(=O)(=O)c1ccc(N2C(=O)c3cc(Cl)c(Cl)cc3C2=O)cc1 [JN-01, 4-(5,6-dichloro-1,3-dioxo-1,3-dihydro-2H-isoindol-2-yl)benzenesulfonamide]	73.8
